Experimental data as given in PMC3639963, “A New Class of Small Molecule Inhibitor of BMP Signaling” (PLoS ONE, 2013).

Experiments:
Experiment in all cases: DSF thermal shift
Format in all cases: binding
Details in all cases: 10 µM inhibitor; read-out: Tm shift
JNK2 = biological target: T1, JNK2 (Homo sapiens, UniProt P45984)
T1 construct: purchased Nanosyn (enzymatic panel); SGC in-house recombinant human kinases (DSF panel); Invitrogen (ALK1-6)
Procedure: (§1) Thermal melting experiments were performed using a Real Time PCR machine Mx3005p (Stratagene) with a protein concentration of 1–2 µM and 10 µM inhibitor as described previously, [25]. […] Recombinant human kinases for DSF screening were prepared by SGC using published methods, [36].

PKN1 = biological target: T2, PKN1 (Homo sapiens, UniProt Q16512)
T2 construct: purchased Nanosyn (enzymatic panel); SGC in-house recombinant human kinases (DSF panel); Invitrogen (ALK1-6)
T2 sequence (Q16512 whole entry): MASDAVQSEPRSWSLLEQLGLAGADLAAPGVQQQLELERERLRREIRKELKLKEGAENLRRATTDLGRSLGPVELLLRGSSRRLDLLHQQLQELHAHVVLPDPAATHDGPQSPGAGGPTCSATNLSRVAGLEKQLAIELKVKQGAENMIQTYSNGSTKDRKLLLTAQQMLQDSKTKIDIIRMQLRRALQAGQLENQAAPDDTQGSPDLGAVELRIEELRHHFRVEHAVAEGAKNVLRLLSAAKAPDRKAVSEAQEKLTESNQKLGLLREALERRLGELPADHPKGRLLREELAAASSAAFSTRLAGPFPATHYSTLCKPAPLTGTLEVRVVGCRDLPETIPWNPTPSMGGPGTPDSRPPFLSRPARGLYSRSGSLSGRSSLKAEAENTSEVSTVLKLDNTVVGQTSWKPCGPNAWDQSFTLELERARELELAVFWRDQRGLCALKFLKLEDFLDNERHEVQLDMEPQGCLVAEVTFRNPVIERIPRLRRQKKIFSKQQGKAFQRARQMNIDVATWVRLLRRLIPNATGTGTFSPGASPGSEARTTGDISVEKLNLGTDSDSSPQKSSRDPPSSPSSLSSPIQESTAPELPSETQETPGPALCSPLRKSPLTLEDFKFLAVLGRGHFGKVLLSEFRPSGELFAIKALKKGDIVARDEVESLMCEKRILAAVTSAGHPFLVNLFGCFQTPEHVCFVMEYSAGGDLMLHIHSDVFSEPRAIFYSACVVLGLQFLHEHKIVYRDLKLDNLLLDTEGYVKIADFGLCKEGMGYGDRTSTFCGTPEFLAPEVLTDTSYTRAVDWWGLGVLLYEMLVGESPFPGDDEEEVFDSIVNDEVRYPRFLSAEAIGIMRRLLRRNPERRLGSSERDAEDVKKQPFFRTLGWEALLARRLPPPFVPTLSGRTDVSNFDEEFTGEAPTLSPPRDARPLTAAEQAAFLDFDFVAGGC
Procedure: as §1

Haspin = biological target: T3, Haspin (Homo sapiens, UniProt Q8TF76)
T3 construct: purchased Nanosyn (enzymatic panel); SGC in-house recombinant human kinases (DSF panel); Invitrogen (ALK1-6)
T3 sequence (Q8TF76 1-798): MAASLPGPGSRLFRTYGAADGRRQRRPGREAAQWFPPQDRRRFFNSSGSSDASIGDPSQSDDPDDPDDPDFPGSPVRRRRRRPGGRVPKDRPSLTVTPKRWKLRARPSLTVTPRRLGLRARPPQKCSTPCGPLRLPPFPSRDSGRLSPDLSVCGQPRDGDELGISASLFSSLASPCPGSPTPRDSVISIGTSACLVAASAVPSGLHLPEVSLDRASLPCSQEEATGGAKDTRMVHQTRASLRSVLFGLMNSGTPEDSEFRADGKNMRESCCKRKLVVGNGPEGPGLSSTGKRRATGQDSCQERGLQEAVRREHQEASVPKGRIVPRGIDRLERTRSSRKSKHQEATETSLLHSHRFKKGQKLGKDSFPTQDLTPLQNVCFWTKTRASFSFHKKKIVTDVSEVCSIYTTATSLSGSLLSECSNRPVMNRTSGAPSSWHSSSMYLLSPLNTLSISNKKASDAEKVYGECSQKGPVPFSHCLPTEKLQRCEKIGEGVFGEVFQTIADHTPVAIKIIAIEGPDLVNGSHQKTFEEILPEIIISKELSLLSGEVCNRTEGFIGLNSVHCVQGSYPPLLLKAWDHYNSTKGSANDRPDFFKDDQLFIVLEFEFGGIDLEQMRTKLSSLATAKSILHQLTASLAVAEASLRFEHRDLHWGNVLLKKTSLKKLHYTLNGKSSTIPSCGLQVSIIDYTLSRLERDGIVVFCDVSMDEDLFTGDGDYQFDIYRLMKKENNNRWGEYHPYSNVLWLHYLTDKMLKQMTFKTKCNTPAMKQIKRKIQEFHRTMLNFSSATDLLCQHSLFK
Procedure: as §1

PIM2 = biological target: T4, PIM2 (Homo sapiens, UniProt Q9P1W9)
T4 construct: purchased Nanosyn (enzymatic panel); SGC in-house recombinant human kinases (DSF panel); Invitrogen (ALK1-6)
T4 sequence (Q9P1W9 whole entry): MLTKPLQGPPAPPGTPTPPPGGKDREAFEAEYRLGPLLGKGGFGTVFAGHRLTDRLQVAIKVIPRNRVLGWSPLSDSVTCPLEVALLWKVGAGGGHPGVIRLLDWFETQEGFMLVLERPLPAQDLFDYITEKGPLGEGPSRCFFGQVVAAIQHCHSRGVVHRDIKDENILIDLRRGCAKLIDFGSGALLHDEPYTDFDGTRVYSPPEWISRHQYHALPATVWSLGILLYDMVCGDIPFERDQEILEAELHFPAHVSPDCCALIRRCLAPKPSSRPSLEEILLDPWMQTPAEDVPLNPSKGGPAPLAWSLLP
Procedure: as §1

PTK7 = biological target: T5, PTK7 (Homo sapiens, UniProt Q13308)
T5 construct: purchased Nanosyn (enzymatic panel); SGC in-house recombinant human kinases (DSF panel); Invitrogen (ALK1-6)
T5 sequence (Q13308 31-1070): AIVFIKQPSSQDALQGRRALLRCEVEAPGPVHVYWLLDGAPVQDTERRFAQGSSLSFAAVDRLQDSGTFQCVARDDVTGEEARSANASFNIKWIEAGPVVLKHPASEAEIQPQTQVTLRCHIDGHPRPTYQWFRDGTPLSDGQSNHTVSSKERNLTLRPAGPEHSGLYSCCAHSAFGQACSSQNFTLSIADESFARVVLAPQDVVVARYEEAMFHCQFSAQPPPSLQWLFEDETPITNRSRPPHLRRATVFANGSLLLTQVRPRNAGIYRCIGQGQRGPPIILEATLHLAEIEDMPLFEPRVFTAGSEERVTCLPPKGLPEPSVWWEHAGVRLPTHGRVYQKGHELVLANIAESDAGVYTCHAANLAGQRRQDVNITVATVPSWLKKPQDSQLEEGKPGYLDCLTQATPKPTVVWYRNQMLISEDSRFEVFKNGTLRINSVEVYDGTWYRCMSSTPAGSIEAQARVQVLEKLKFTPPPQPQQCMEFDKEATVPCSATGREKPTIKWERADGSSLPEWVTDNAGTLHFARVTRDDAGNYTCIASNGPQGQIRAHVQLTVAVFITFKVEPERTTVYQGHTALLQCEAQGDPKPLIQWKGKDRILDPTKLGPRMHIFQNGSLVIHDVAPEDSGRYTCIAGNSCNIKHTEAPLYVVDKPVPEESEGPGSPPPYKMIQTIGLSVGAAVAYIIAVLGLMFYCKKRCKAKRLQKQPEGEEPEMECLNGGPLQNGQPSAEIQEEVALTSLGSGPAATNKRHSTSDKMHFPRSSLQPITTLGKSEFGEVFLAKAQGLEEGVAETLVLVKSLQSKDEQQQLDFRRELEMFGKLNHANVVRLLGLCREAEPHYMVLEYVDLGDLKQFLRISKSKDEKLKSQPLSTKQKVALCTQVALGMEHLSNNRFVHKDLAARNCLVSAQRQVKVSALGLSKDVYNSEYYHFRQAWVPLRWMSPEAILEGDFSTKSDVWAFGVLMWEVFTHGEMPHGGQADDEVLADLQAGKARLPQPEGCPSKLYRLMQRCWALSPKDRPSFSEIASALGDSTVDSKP
Procedure: as §1

T1 sequence (P45984 whole entry): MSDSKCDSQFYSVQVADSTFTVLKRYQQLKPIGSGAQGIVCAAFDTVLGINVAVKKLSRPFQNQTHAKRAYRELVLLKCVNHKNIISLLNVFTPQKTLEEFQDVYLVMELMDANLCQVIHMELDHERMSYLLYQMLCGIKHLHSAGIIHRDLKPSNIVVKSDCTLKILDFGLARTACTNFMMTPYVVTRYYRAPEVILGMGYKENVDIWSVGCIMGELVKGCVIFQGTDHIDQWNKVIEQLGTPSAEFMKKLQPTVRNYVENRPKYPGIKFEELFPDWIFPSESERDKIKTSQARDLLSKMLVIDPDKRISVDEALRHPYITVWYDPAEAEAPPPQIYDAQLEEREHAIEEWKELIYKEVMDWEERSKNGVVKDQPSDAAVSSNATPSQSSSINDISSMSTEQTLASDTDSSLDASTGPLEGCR

ΔTm at 10 µM (JNK2) | ΔTm at 10 µM (PKN1) | ΔTm at 10 µM (Haspin) | ΔTm at 10 µM (PIM2) | ΔTm at 10 µM (PTK7) | SMILES
0.4 °C | 2.3 °C | 2.3 °C | 0.6 °C | -1.2 °C | c1cc(-c2cnn3cc(-c4ccc(OCCN5CCCCC5)cc4)cnc23)ccn1 [Dorsomorphin]
-0.1 °C | 0.5 °C | 0.3 °C | 0.1 °C | -1.3 °C | COc1cc(-c2cc(-c3cccc(O)c3)cnc2N)cc(OC)c1OC [K02288, 3-[6-amino-5-(3,4,5-trimethoxy-phenyl)-pyridin-3-yl]-phenol]

SMILES | ΔTm at 10 µM (JNK2) | ΔTm at 10 µM (PKN1) | ΔTm at 10 µM (Haspin) | ΔTm at 10 µM (PIM2) | ΔTm at 10 µM (PTK7)
c1ccc2c(-c3cnn4cc(-c5ccc(N6CCNCC6)cc5)cnc34)ccnc2c1 [LDN-193189] | -0.6 °C | 2.3 °C | 0.4 °C | -1.3 °C | -0.3 °C
